Experimental data published in the supplement of paper PMC13380429.

Assays:
Settings in all cases: 72 h
HepG2 [1] = assay: relative viability EC50 (midpoint between 100% and the lowest measured viability); higher = less toxic
Calu-3 [2] = assay: as above
U2OS [3] = assay: as above
Caco-2 [4] = assay: as above
Vero E6 [5] = assay: as above
HepG2 [6] = assay: cell viability relative to DMSO; higher = less toxic
Calu-3 [7] = assay: as above
U2OS [8] = assay: as above
Caco-2 [9] = assay: as above
Vero E6 [10] = assay: as above
HepG2 [11] = assay: drug sensitivity score (DSS) for viability; higher = more toxic; extreme values may be limits of the assay
Calu-3 [12] = assay: as above
U2OS [13] = assay: as above
Caco-2 [14] = assay: as above
Vero E6 [15] = assay: as above

| SMILES | relative viability EC50 (HepG2 [1]) [µM] | relative viability EC50 (Calu-3 [2]) [µM] | relative viability EC50 (U2OS [3]) [µM] | relative viability EC50 (Caco-2 [4]) [µM] | relative viability EC50 (Vero E6 [5]) [µM] | cell viability (HepG2 [6]; 1 nM) [%] | cell viability (HepG2 [6]; 10 nM) [%] | cell viability (HepG2 [6]; 100 nM) [%] | cell viability (HepG2 [6]; 1000 nM) [%] | cell viability (HepG2 [6]; 10000 nM) [%] | cell viability (Calu-3 [7]; 1 nM) [%] | cell viability (Calu-3 [7]; 10 nM) [%] | cell viability (Calu-3 [7]; 100 nM) [%] | cell viability (Calu-3 [7]; 1000 nM) [%] | cell viability (Calu-3 [7]; 10000 nM) [%] | cell viability (U2OS [8]; 1 nM) [%] | cell viability (U2OS [8]; 10 nM) [%] | cell viability (U2OS [8]; 100 nM) [%] | cell viability (U2OS [8]; 1000 nM) [%] | cell viability (U2OS [8]; 10000 nM) [%] | cell viability (Caco-2 [9]; 1 nM) [%] | cell viability (Caco-2 [9]; 10 nM) [%] | cell viability (Caco-2 [9]; 100 nM) [%] | cell viability (Caco-2 [9]; 1000 nM) [%] | cell viability (Caco-2 [9]; 10000 nM) [%] | cell viability (Vero E6 [10]; 1 nM) [%] | cell viability (Vero E6 [10]; 10 nM) [%] | cell viability (Vero E6 [10]; 100 nM) [%] | cell viability (Vero E6 [10]; 1000 nM) [%] | cell viability (Vero E6 [10]; 10000 nM) [%] | drug sensitivity score (HepG2 [11]) | drug sensitivity score (Calu-3 [12]) | drug sensitivity score (U2OS [13]) | drug sensitivity score (Caco-2 [14]) | drug sensitivity score (Vero E6 [15]) |
| --- | --- | --- | --- | --- | --- | --- | --- | --- | --- | --- | --- | --- | --- | --- | --- | --- | --- | --- | --- | --- | --- | --- | --- | --- | --- | --- | --- | --- | --- | --- | --- | --- | --- | --- | --- |
| COc1ccc2cc(CCC(C)=O)ccc2c1 [nabumetone] | > 10 | > 10 | > 10 | > 10 | > 10 | 99.8 | 97.8 | 105 | 90.8 | 95.8 | 98.2 | 90.6 | 86.7 | 106 | 95.4 | 98.5 | 95.2 | 99.9 | 93.3 | 101 | 111 | 90.4 | 89.2 | 97.4 | 94.5 | 101 | 104 | 101 | 93.8 | 88.1 | 0 | 0 | 0 | 0 | 0.3 |
| COc1ccc(-c2nc(-c3ccc(-c4cccc(Cl)c4)o3)[nH]c2-c2ccc(OC)cc2)cc1 [neurodazine] | > 10 | > 10 | > 10 | > 10 | > 10 | 112 | 99.5 | 96.3 | 98.2 | 86.2 | 91.4 | 96 | 97.2 | 79.6 | 89.6 | 100 | 99 | 105 | 96.3 | 96.1 | 106 | 94.9 | 109 | 103 | 84.4 | 109 | 103 | 98.4 | 102 | 96.6 | 0.3 | 0.6 | 0 | 0.2 | 0 |
| O=C1N=C2SCCN2C(=O)C1Cc1ccc(Cl)cc1 (stereo not given) [nuclomedone] | > 10 | > 10 | > 10 | > 10 | > 10 | 93.7 | 89.1 | 95.3 | 96.4 | 92 | 91.5 | 104 | 95.5 | 99.9 | 90.5 | 98.4 | 97.6 | 95.6 | 95.6 | 96.4 | 93.1 | 96.5 | 91.9 | 92.2 | 94.9 | 96.9 | 95.5 | 95.1 | 104 | 93.4 | 0 | 0 | 0 | 0 | 0 |
| CCCCCCCC/C=C\CCCCCCCC(=O)NCCO [oleoylethanolamide] | > 10 | > 10 | > 10 | > 10 | > 10 | 92.1 | 96.1 | 103 | 90.2 | 104 | 97.2 | 101 | 97.1 | 102 | 101 | 99.8 | 100 | 97 | 103 | 103 | 86.2 | 99.2 | 92.3 | 104 | 106 | 106 | 102 | 105 | 96.4 | 103 | 0 | 0 | 0 | 0 | 0 |
| COc1cccc(C(=O)CCN[C@@H](C)[C@H](O)c2ccccc2)c1 [oxyfedrine] | > 10 | > 10 | > 10 | > 10 | > 10 | 101 | 105 | 98.9 | 91.3 | 79.8 | 86.3 | 98.6 | 113 | 95.6 | 107 | 97.8 | 103 | 98.5 | 99.9 | 95.4 | 99.3 | 101 | 108 | 102 | 95.8 | 103 | 99.8 | 99.2 | 104 | 101 | 1.3 | 0 | 0 | 0 | 0 |
| CC(=O)CCCCn1c(=O)c2c(ncn2C)n(C)c1=O [pentoxifylline] | > 10 | > 10 | > 10 | > 10 | > 10 | 88.1 | 98.5 | 110 | 94.3 | 106 | 99.7 | 95 | 104 | 95.8 | 98.1 | 101 | 96.1 | 102 | 94.2 | 100 | 98.1 | 115 | 97 | 114 | 89.1 | 104 | 110 | 108 | 108 | 99.2 | 0 | 0 | 0 | 0 | 0 |
| O=C1OC(c2ccc(O)cc2)(c2ccc(O)cc2)c2ccccc21 [phenolphthalein] | > 10 | > 10 | > 10 | > 10 | > 10 | 131 | 76.1 | 112 | 105 | 119 | 96.1 | 94.8 | 94.2 | 102 | 102 | 99.1 | 96.1 | 99.7 | 97 | 105 | 86.3 | 77.8 | 99.7 | 93.2 | 102 | 95.8 | 93.2 | 87.4 | 95.3 | 107 | 0 | 0 | 0 | 0 | 0 |
| O=C(CCc1ccc(O)cc1)c1c(O)cc(O)cc1O[C@@H]1O[C@H](CO)[C@@H](O)[C@H](O)[C@H]1O [phlorizin] | > 10 | > 10 | > 10 | > 10 | > 10 | 107 | 87.5 | 94.9 | 96.9 | 106 | 89.7 | 95.5 | 93.2 | 94.3 | 95.3 | 96.7 | 98.5 | 93.3 | 104 | 94.5 | 94.3 | 118 | 98.3 | 97.7 | 93.7 | 96.4 | 97.9 | 98.4 | 96.7 | 97.3 | 0 | 0 | 0 | 0 | 0 |
| CC[C@@H]1C(=O)OC[C@@H]1Cc1cncn1C [pilocarpine] | > 10 | > 10 | > 10 | > 10 | > 10 | 97.7 | 95.3 | 105 | 104 | 105 | 109 | 102 | 103 | 98.4 | 97.9 | 106 | 101 | 101 | 99.2 | 100 | 100 | 98.1 | 88.7 | 91.3 | 103 | 106 | 104 | 99.3 | 106 | 103 | 0 | 0 | 0 | 0 | 0 |
| COc1cc2nc(N3CCN(C(=O)c4ccco4)CC3)nc(N)c2cc1OC [prazosin] | > 10 | > 10 | > 10 | > 10 | > 10 | 89.9 | 93.5 | 86.2 | 91.9 | 97.6 | 105 | 102 | 103 | 97.4 | 99.1 | 98.2 | 97.8 | 99.5 | 102 | 101 | 94.4 | 91.2 | 98.4 | 96 | 92.5 | 102 | 105 | 101 | 99.3 | 118 | 0 | 0 | 0 | 0 | 0 |
| CCN(CC)CCOC(=O)c1ccc(N)cc1 [procaine] | > 10 | > 10 | > 10 | > 10 | > 10 | 108 | 94.9 | 100 | 97.7 | 98.9 | 100 | 93.3 | 92 | 97 | 98.3 | 100 | 95.2 | 97.9 | 94.2 | 102 | 92.8 | 92.7 | 96.6 | 97 | 97.3 | 104 | 99.4 | 99.3 | 103 | 98.5 | 0 | 0 | 0 | 0 | 0 |
| CNC(=O)Oc1ccccc1OC(C)C [propoxur] | > 10 | > 10 | > 10 | > 10 | > 10 | 105 | 93.3 | 87.5 | 93.8 | 99.7 | 102 | 97.1 | 86.2 | 94.4 | 104 | 101 | 97.7 | 95.7 | 94.9 | 98.2 | 99.6 | 84.6 | 104 | 88.1 | 101 | 95 | 106 | 102 | 88.2 | 85.4 | 0 | 0 | 0 | 0 | 1 |
| C[C@@H](O)[C@H](N)C(=O)N1CCC[C@H]1C(=O)N1CCC[C@H]1C(=O)N[C@H](C(N)=O)[C@@H](C)O [rapastinel] | > 10 | > 10 | > 10 | > 10 | > 10 | 100 | 110 | 91.9 | 104 | 97.6 | 95.3 | 101 | 91.4 | 96.8 | 106 | 95.7 | 94.4 | 98.8 | 95.6 | 97.3 | 100 | 88 | 97.6 | 97.1 | 92.6 | 97.6 | 99.5 | 95 | 102 | 114 | 0 | 0 | 0 | 0 | 0 |
| CC(Cc1ccccc1)(NC(=O)CN)c1ccccc1 (stereo not given) [remacemide] | > 10 | > 10 | > 10 | > 10 | > 10 | 99.4 | 96.1 | 100 | 94.3 | 104 | 102 | 93.6 | 92.5 | 98.6 | 90.8 | 98.6 | 94.7 | 99.6 | 93.6 | 94 | 99.6 | 92.8 | 100 | 91.5 | 102 | 99.7 | 101 | 102 | 96.2 | 99.3 | 0 | 0 | 0 | 0 | 0 |
